In ChEMBL document CHEMBL3860060, “Discovery and Optimization of 1-Phenoxy-2-aminoindanes as Potent, Selective, and Orally Bioavailable Inhibitors of the Na+/H+ Exchanger Type 3 (NHE3)” (J Med Chem, 2016):

Key:
[1] = Inhibition of cat NHE3 expressed in LAP1 cell assessed as intracellular pH recovery measured for 2 mins by CECF-AM dye based FLIPR assay; settings: Felis catus, LAP1, 2 min
[2] = biological target: T1, Sodium/hydrogen exchanger isoform 3 (Sus scrofa, UniProt Q9XSD0); test: Inhibition of pig NHE3 expressed in LAP1 cell assessed as intracellular pH recovery measured for 2 mins by CECF-AM dye based FLIPR assay
T1 sequence (Q9XSD0 whole entry): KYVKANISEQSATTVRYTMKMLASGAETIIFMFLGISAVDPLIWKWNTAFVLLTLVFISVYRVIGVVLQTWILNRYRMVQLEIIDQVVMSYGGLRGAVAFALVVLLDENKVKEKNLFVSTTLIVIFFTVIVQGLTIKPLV

[3] = biological target: Sodium/hydrogen exchanger 3 (Rattus norvegicus, UniProt P26433); test: Inhibition of rat NHE3 expressed in LAP1 cell assessed as intracellular pH recovery measured for 2 mins by CECF-AM dye based FLIPR assay
Sequence of Sodium/hydrogen exchanger 3 (P26433 whole entry): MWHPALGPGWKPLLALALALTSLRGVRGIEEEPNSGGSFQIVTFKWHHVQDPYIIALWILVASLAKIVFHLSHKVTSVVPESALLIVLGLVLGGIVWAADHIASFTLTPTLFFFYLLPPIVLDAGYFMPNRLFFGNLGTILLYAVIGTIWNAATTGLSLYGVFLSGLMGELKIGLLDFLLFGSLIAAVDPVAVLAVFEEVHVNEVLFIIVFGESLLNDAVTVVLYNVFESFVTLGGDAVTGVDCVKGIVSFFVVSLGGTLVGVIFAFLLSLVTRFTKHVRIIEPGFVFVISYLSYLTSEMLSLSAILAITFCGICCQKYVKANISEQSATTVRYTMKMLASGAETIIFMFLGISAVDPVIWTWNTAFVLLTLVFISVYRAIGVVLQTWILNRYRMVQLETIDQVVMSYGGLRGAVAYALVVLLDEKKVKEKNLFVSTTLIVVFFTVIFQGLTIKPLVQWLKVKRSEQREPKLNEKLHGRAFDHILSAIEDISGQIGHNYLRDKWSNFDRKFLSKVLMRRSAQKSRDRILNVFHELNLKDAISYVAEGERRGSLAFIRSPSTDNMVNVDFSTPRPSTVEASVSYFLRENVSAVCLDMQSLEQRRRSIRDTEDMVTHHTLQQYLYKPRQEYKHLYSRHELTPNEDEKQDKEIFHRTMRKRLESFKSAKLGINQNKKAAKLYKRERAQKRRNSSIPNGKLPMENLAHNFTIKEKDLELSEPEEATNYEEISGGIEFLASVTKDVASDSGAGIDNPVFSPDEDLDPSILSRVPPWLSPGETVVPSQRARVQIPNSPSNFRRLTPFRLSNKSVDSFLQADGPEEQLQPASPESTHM

[4] = biological target: Sodium/hydrogen exchanger 1 (Homo sapiens, UniProt P19634); test: Inhibition of human NHE1 expressed in LAP1 cell assessed as intracellular pH recovery measured for 2 mins by CECF-AM dye based FLIPR assay
Sequence of Sodium/hydrogen exchanger 1 (P19634 whole entry): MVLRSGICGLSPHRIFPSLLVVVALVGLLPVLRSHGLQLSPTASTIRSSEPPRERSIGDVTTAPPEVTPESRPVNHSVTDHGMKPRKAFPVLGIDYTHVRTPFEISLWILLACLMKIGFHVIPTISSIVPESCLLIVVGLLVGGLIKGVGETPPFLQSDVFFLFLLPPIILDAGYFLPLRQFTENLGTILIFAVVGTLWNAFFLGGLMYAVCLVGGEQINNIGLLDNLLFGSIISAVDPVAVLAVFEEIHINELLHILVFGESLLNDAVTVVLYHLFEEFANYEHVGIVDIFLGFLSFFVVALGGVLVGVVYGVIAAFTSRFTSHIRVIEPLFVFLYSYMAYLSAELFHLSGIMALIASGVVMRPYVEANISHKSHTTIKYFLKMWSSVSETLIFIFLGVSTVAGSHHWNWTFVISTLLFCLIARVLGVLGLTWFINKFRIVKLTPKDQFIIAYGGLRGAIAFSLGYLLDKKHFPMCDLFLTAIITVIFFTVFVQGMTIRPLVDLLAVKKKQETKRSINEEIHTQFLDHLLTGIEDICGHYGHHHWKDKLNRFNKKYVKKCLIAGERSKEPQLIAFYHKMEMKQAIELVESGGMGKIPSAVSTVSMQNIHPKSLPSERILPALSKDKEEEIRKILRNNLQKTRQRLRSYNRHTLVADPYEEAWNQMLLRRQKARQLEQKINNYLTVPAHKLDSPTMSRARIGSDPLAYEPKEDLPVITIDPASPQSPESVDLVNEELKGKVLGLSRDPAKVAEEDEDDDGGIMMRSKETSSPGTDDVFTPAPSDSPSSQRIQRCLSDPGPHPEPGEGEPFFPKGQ

[5] = biological target: T2, Sodium/hydrogen exchanger 2 (Homo sapiens, UniProt Q9UBY0); test: Inhibition of human NHE2 expressed in LAP1 cell assessed as intracellular pH recovery measured for 2 mins by CECF-AM dye based FLIPR assay
T2 sequence (Q9UBY0 whole entry): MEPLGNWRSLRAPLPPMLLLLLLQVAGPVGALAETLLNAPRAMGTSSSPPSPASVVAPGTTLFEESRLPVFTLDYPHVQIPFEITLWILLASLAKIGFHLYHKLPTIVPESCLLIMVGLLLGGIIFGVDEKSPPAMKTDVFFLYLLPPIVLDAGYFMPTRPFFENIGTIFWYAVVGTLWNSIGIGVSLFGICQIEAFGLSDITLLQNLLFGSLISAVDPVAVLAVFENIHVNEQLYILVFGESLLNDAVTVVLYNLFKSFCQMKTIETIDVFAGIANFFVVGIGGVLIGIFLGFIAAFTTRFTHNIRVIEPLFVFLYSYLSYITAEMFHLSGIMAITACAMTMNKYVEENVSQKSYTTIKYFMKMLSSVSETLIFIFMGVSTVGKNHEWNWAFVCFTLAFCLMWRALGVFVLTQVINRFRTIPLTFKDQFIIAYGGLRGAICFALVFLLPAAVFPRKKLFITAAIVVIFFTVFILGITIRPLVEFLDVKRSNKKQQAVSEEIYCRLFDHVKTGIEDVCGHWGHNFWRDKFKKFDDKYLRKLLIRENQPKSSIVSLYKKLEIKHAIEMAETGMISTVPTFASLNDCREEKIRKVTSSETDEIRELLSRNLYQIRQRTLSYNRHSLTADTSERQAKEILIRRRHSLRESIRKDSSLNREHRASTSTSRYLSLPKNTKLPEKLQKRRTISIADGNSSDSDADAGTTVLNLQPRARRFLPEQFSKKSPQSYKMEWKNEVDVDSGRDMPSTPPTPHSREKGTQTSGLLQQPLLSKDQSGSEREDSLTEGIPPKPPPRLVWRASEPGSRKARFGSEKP

[6] = biological target: T3, Sodium/hydrogen exchanger 5 (Homo sapiens, UniProt Q14940); test: Inhibition of human NHE5 expressed in LAP1 cell assessed as intracellular pH recovery measured for 2 mins by CECF-AM dye based FLIPR assay
T3 sequence (Q14940 whole entry): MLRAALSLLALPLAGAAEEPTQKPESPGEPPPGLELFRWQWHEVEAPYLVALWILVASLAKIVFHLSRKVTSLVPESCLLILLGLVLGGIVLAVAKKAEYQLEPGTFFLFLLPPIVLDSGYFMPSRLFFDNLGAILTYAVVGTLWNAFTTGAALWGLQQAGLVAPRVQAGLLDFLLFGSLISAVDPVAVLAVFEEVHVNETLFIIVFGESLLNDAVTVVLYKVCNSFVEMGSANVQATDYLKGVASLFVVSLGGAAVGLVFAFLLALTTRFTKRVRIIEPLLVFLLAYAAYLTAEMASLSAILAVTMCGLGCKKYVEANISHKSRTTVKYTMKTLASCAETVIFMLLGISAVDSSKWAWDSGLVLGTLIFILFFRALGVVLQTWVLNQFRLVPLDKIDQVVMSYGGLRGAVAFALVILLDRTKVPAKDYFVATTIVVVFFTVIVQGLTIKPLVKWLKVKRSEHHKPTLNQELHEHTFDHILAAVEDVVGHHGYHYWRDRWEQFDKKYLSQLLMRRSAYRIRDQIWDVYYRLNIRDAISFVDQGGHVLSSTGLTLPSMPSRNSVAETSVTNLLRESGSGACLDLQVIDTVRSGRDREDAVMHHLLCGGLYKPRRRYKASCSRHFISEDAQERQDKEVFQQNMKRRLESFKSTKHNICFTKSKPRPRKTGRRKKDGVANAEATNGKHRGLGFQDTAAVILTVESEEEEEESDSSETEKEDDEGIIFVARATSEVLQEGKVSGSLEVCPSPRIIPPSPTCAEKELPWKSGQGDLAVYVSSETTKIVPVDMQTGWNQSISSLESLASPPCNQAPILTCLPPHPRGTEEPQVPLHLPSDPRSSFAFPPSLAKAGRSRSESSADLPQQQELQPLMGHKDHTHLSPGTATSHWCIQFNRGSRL

[7] = Inhibition of GABA-gated chloride channel (unknown origin); parameters: species or system Homo sapiens
[8] = Inhibition of PDE4 (unknown origin); parameters: species or system Homo sapiens
[9] = Drug metabolism in human hepatic microsomes assessed as compound lability by LC-MS/MS method; format: ADME, Microsome; settings: liver microsomes, read-out: Drug metabolism
[10] = Drug metabolism in rat hepatic microsomes assessed as compound lability by LC-MS/MS method; format: ADME, Microsome; settings: liver microsomes, read-out: Drug metabolism
[11] = Drug metabolism in mouse hepatic microsomes assessed as compound lability by LC-MS/MS method; format: ADME, Microsome; settings: liver microsomes, read-out: Drug metabolism
[12] = Drug metabolism in guinea pig hepatic microsomes assessed as compound lability by LC-MS/MS method; format: ADME, Cavia porcellus, Microsome; settings: liver microsomes, read-out: Drug metabolism
[13] = Drug metabolism in rabbit hepatic microsomes assessed as compound lability by LC-MS/MS method; format: ADME, Oryctolagus cuniculus, Microsome; settings: liver microsomes, read-out: Drug metabolism
[14] = Drug metabolism in Landrance pig hepatic microsomes assessed as compound lability by LC-MS/MS method; format: ADME, Sus scrofa, Microsome; settings: Landrace, liver microsomes, read-out: Drug metabolism
[15] = Drug metabolism in hamster hepatic microsomes assessed as compound lability by LC-MS/MS method; format: ADME, Microsome; settings: cricetinae, liver microsomes; read-out: Drug metabolism
[16] = Drug metabolism in macaque hepatic microsomes assessed as compound lability by LC-MS/MS method; format: ADME, Macaca mulatta, Microsome; settings: rhesus monkey, liver microsomes; read-out: Drug metabolism
[17] = Drug metabolism in human hepatic microsomes assessed as compound lability in presence of CYP3A4 inhibitor ketoconazole by LC-MS/MS method; format: ADME, Microsome; settings: liver microsomes, with ketoconazole (CYP3A4 inhibitor), concentration not stated, read-out: Drug metabolism
[18] = Clearance in human hepatocytes assessed per million cells at 5 uM by LC-MS/MS method; format: ADME, cell-based, Hepatocyte
[19] = Drug metabolism in human hepatic microsomes assessed as glucuronidation by LC-MS/MS method; format: ADME, Liver, Microsome
[20] = Drug metabolism in rat hepatic microsomes assessed as glucuronidation by LC-MS/MS method; format: ADME, Liver, Microsome
[21] = Drug metabolism in dog hepatic microsomes assessed as glucuronidation by LC-MS/MS method; format: ADME, Canis lupus familiaris, Liver, Microsome
[22] = Drug metabolism in mouse hepatic microsomes assessed as glucuronidation by LC-MS/MS method; format: ADME, Liver, Microsome
[23] = Drug metabolism in rabbit hepatic microsomes assessed as glucuronidation by LC-MS/MS method; format: ADME, Oryctolagus cuniculus, Liver, Microsome
[24] = Drug metabolism in guinea pig hepatic microsomes assessed as glucuronidation by LC-MS/MS method; format: ADME, Cavia porcellus, Liver, Microsome
[25] = Drug metabolism in hamster hepatic microsomes assessed as glucuronidation by LC-MS/MS method; format: ADME, Liver, Microsome; settings: cricetinae
[26] = Drug metabolism in monkey hepatic microsomes assessed as glucuronidation by LC-MS/MS method; format: ADME, Macaca mulatta, Liver, Microsome; settings: rhesus monkey
[27] = Drug metabolism in pig hepatic microsomes assessed as glucuronidation by LC-MS/MS method; format: ADME, Sus scrofa, Liver, Microsome
[28] = Drug metabolism in mini pig hepatic microsomes assessed as glucuronidation by LC-MS/MS method; format: ADME, Sus scrofa, Liver, Microsome
Cytochrome P450 2C9 = Cytochrome P450 2C9 (Homo sapiens, UniProt P11712); test: Inhibition of CYP2C9 in pooled human hepatic microsomes using diclofenac substrate in presence of NADPH; format: ADME, Liver
Sequence of Cytochrome P450 2C9 (P11712 whole entry): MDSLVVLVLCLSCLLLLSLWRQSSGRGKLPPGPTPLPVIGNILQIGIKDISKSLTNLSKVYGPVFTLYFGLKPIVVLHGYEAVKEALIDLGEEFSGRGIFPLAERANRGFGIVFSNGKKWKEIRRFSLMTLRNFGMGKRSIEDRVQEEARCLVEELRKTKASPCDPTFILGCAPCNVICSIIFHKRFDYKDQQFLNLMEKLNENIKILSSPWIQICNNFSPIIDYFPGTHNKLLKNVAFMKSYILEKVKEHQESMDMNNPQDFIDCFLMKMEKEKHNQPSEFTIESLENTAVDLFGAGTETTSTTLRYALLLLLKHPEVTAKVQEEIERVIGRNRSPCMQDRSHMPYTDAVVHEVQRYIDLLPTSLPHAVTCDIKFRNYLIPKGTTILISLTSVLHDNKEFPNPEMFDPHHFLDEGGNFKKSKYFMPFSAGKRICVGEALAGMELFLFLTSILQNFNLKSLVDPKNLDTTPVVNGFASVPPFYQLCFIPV

Salmonella typhimurium = test: Genotoxicity in Salmonella typhimurium at 300 ug/ml by AMES II test; format: toxicity, organism-based; settings: salmonella enterica subsp. enterica serovar typhimurium
[29] = Toxicity in Xenopus laevis at 62.5 ug/ml by FETAX assay
[30] = Stability of the compound; format: physicochemical
[31] = Solubility of the compound in aqueous buffer; format: physicochemical
[32] = Distribution coefficient, log D of the compound at pH 7.4; format: physicochemical; settings: octanol/water
[33] = Lipophilicity, log P of the compound; format: physicochemical; settings: octanol/water
[34] = Cmax in Sprague-Dawley rat at 10 mg/kg, po administered as single dose by ESI-LC-MS/MS method; format: ADME, organism-based; parameters: dose 10 mg/kg, route oral; settings: in vivo
[35] = Tmax in Sprague-Dawley rat at 10 mg/kg, po administered as single dose by ESI-LC-MS/MS method; format: ADME, organism-based; settings: in vivo
[36] = Plasma concentration in Sprague-Dawley rat at 10 mg/kg, po after 24 hrs administered as single dose by ESI-LC-MS/MS method; format: ADME, organism-based
[37] = Half life in Sprague-Dawley rat at 10 mg/kg, po administered as single dose by ESI-LC-MS/MS method; format: ADME, organism-based; settings: in vivo
[38] = Oral bioavailability in Sprague-Dawley rat at 10 mg/kg administered as single dose by ESI-LC-MS/MS method; format: ADME, organism-based; settings: in vivo
[39] = Ratio of AUC in Sprague-Dawley rat at 100 mg/kg, po administered as single dose by ESI-LC-MS/MS method to AUC in Sprague-Dawley rat at 10 mg/kg, po administered as single dose by ESI-LC-MS/MS method; format: ADME, organism-based; settings: in vivo
[40] = Ratio of Cmax in Sprague-Dawley rat at 100 mg/kg, po administered as single dose by ESI-LC-MS/MS method to Cmax in Sprague-Dawley rat at 10 mg/kg, po administered as single dose by ESI-LC-MS/MS method; format: ADME, organism-based; settings: in vivo
[41] = Ratio of AUC in Sprague-Dawley rat at 300 mg/kg, po administered as single dose by ESI-LC-MS/MS method to AUC in Sprague-Dawley rat at 100 mg/kg, po administered as single dose by ESI-LC-MS/MS method; format: ADME, organism-based; settings: in vivo
[42] = Tmax in Duroc Landrace pig at 3 mg/kg, po administered as single dose by ESI-LC-MS/MS method; format: ADME, organism-based, Sus scrofa; settings: in vivo
[43] = Half life in Duroc Landrace pig at 3 mg/kg, po administered as single dose by ESI-LC-MS/MS method; format: ADME, organism-based, Sus scrofa; settings: in vivo
[44] = Oral bioavailability in Duroc Landrace pig at 3 mg/kg administered as single dose by ESI-LC-MS/MS method; format: ADME, organism-based, Sus scrofa; settings: in vivo
[45] = Oral bioavailability in urethane-chloralose anesthetized pig at 3 mg/kg, id; format: ADME, organism-based, Sus scrofa; settings: in vivo
Sus scrofa [46] = test: Inhibition of upper airway collapsibility in urethane-chloralose anesthetized pig assessed as time duration for onset of action at 1 mg/kg, id after 4 hrs; format: functional
Sus scrofa [47] = test: Inhibition of upper airway collapsibility in urethane-chloralose anesthetized pig assessed as time duration for onset of action at 3 mg/kg, id after 4 hrs; format: functional
[48] = Toxicity in anesthetized mongrel dog assessed as induction of major hemodynamic changes at 10 mg/kg, iv; format: organism-based, Canis lupus familiaris; settings: in vivo
[49] = Toxicity in anesthetized mongrel dog assessed as induction of major electrophysiological changes at 10 mg/kg, iv; format: organism-based, Canis lupus familiaris; settings: in vivo

Cc1nnc(C)n1-c1ccc(O[C@H]2c3cc(Cl)cc(Cl)c3C[C@@H]2N2CC[C@@H](O)C2)c(F)c1.Cl
IC50 [1]: 6.1 nM
IC50 [2]: 7.8 nM
IC50 [3]: 10.2 nM
IC50 [4]: > 100000 nM
IC50 [5]: > 100000 nM
IC50 [6]: 291 nM
IC50 [7]: 12000 nM
IC50 [8]: 6600 nM
metabolised [9]: 25%
metabolised [10]: 25%
metabolised [11]: 25%
metabolised [12]: 25%
metabolised [13]: 25%
metabolised [14]: 25%
metabolised [15]: > 60%
metabolised [16]: > 60%
metabolised [17]: 5%
CLH [18]: 0.12 mL/h
Drug metabolism [19]: Metabolite_Notdetected
Drug metabolism [20]: Metabolite_Notdetected
Drug metabolism [21]: Metabolite_Notdetected
Drug metabolism [22]: Metabolite_Notdetected
Drug metabolism [23]: Metabolite_Notdetected
Drug metabolism [24]: Metabolite_Notdetected
Drug metabolism [25]: Metabolite_Notdetected
Drug metabolism [26]: Metabolite_Detected
Drug metabolism [27]: Metabolite_Detected
Drug metabolism [28]: Metabolite_Detected
IC50 (Cytochrome P450 2C9): 900 nM
Activity (Salmonella typhimurium): Non-Toxic
Activity [29]: Non-Toxic

Cc1nnc(C)n1-c1ccc(O[C@H]2c3cc(Cl)cc(Cl)c3C[C@@H]2N2CC[C@@H](O)C2)c(F)c1.O=P(O)(O)O
Stability [30]: Stable
solubility [31]: Soluble
logD [32]: 2.06
logP [33]: 2.05
Cmax [34]: 570 ng/mL
Tmax [35]: 1 h
concentration at 24 h [36]: < 1 ng/mL
half-life [37]: 2.7 h
bioavailability [38]: 42%
Ratio [39]: 2.3
Ratio [40]: 2.3
Ratio [41]: 1.1
Tmax [42]: 0.5 h
half-life [43]: 18 h
bioavailability [44]: 18 to 98%
bioavailability [45]: 61%
Time (Sus scrofa [46]): 1 h
Time (Sus scrofa [47]): 1.5 h
Activity [48]: Non-Toxic
Activity [49]: Non-Toxic
